Test results published in patent US20240190890A1, “MK2 INHIBITORS AND USES THEREOF” (Bristol-Myers Squibb Company, priority 2022, published 2024).

The compounds below were run against p38a activated, mitogen-activated protein kinase-activated protein kinase 2 (MAPKAP-K2 or MK2) enzyme (Homo sapiens (Human), UniProt P49137) (assay: MK2 Omnia continuous-read kinase assay for compound potency). Conditions: [MK-2]=0.4 nM, [ATP]=10 μM, [ST3-Sox]=10 μM; room temperature.
Type: biochemical
Method in brief: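 Continuous Sox-peptide fluorescence read (ex360/em485) every 71 s over 2 h at room temperature. Reactions: 10 μM each of ATP (at apparent Km) and S/T3-Sox, 0.4 nM p38a-activated MK2, pH 7.5 Tris/MgCl2 buffer. Initial rates yield % inhibition and IC50; single-exponential kobs values yield apparent kinact/KI.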

Chain of p38a activated, mitogen-activated protein kinase-activated protein kinase 2 (MAPKAP-K2 or MK2) enzyme (P49137 whole entry): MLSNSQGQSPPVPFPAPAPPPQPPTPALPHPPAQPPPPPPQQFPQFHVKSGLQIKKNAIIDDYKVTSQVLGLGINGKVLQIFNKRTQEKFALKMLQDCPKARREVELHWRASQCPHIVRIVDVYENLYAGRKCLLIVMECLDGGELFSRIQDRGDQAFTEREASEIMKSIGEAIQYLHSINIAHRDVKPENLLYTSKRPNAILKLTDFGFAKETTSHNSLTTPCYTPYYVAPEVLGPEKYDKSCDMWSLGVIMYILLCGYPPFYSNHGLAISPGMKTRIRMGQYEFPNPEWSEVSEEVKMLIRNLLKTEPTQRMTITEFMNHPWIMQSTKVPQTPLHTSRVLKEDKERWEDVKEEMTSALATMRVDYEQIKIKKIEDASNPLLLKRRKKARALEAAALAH

SMILES	IC50 [nM]
C=Cc1cc(-c2ccc3c(ccc4sc5c(c43)NC[C@@H](C)NC5=O)n2)cc(N2CCC(OC)CC2)n1 [Example I-158, (R)-3-(2-(4-methoxypiperidin-1-yl)-6-vinylpyridin-4-yl)-10-methyl-9,10,11,12-tetrahydro-8H-[1,4]diazepino[5′,6′:4,5]thieno[3,2-f]quinolin-8-one]	38
C#Cc1ncc(OC)c(-c2ccc3c(ccc4sc5c(c43)NC[C@@H](C)NC5=O)n2)n1 [Example I-42, (R)-3-(2-ethynyl-5-methoxypyrimidin-4-yl)-10-methyl-9,10,11,12-tetrahydro-8H-[1,4]diazepino[5′,6′:4,5]thieno[3,2-f]quinolin-8-one]	233
C=Cc1cc(-c2ccc3c(ccc4sc5c(c43)NC[C@@H](C)NC5=O)n2)c(OC)cn1 [Example I-256, (R)-3-(5-methoxy-2-vinylpyridin-4-yl)-10-methyl-9,10,11,12-tetrahydro-8H-[1,4]diazepino[5′,6′:4,5]thieno[3,2-f]quinolin-8-one]	20
C#Cc1nc(CN2CCN(C)CC2)cc(-c2ccc3c(ccc4sc5c(c43)NC[C@@H](C)NC5=O)n2)n1 [Example I-89, (R)-3-(2-ethynyl-6-((4-methylpiperazin-1-yl)methyl)pyrimidin-4-yl)-10-methyl-9,10,11,12-tetrahydro-8H-[1,4]diazepino[5′,6′:4,5]thieno[3,2-f]quinolin-8-one]	26
C=Cc1cc(C)nn1-c1ccc2c(ccc3sc4c(c32)NC[C@@H](C)NC4=O)n1 [Example I-236, (R)-10-methyl-3-(3-methyl-5-vinyl-1H-pyrazol-1-yl)-9,10,11,12-tetrahydro-8H-[1,4]diazepino[5′,6′:4,5]thieno[3,2-f]quinolin-8-one]	157
[2H]C([2H])([2H])C(O)(c1cnc(C=C)cc1-c1ccc2c(ccc3sc4c(c32)NC[C@@H](C)NC4=O)n1)C([2H])([2H])[2H] [Example I-258, (R)-3-(5-(2-hydroxypropan-2-yl-1,1,1,3,3,3-d6)-2-vinylpyridin-4-yl)-10-methyl-9,10,11,12-tetrahydro-8H-[1,4]diazepino[5′,6′:4,5]thieno[3,2-f]quinolin-8-one]	1000
C[C@@H]1CNc2c(sc3ccc4nc(-c5cnc(Cl)[nH]5)ccc4c23)C(=O)N1 [Example I-151, (R)-3-(2-chloro-1H-imidazol-5-yl)-10-methyl-9,10,11,12-tetrahydro-8H-[1,4]diazepino[5′,6′:4,5]thieno[3,2-f]quinolin-8-one]	23
C#Cc1cccc(-c2ccc3c(ccc4sc5c(c43)NC[C@@H](C)NC5=O)n2)n1 [Example I-56, (R)-3-(6-ethynylpyridin-2-yl)-10-methyl-9,10,11,12-tetrahydro-8H-[1,4]diazepino[5′,6′:4,5]thieno[3,2-f]quinolin-8-one]	194
C#Cc1cc(-c2ccc3c(ccc4sc5c(c43)NC[C@@H](C)NC5=O)n2)c(CN2CCOCC2)cn1 [Example I-154, (R)-3-(2-ethynyl-5-(morpholinomethyl)pyridin-4-yl)-10-methyl-9,10,11,12-tetrahydro-8H-[1,4]diazepino[5′,6′:4,5]thieno[3,2-f]quinolin-8-one]	49
C[C@@H]1CNc2c(sc3ccc4nc(-n5c(Br)nc(Cl)c5Cl)ccc4c23)C(=O)N1 [Example I-250, (R)-3-(2-bromo-4,5-dichloro-1H-imidazol-1-yl)-10-methyl-9,10,11,12-tetrahydro-8H-[1,4]diazepino[5′,6′:4,5]thieno[3,2-f]quinolin-8-one]	580
C[C@@H]1CNc2c(sc3ccc4nc(-c5nc(Cl)cc(N6CCN(C)CC6)n5)ccc4c23)C(=O)N1 [Example I-43, (R)-3-(4-chloro-6-(4-methylpiperazin-1-yl)pyrimidin-2-yl)-10-methyl-9,10,11,12-tetrahydro-8H-[1,4]diazepino[5′,6′:4,5]thieno[3,2-f]quinolin-8-one]	440
Cc1cnc(CC#N)cc1-c1ccc2c(ccc3sc4c(c32)NC[C@@H](C)NC4=O)n1 [Example I-267, (R)-2-(5-methyl-4-(10-methyl-8-oxo-9,10,11,12-tetrahydro-8H-[1,4]diazepino[5′,6′:4,5]thieno[3,2-f]quinolin-3-yl)pyridin-2-yl)acetonitrile]	1000
C#Cc1cc(-c2ccc3c(ccc4sc5c(c43)NC[C@@H](C)NC5=O)n2)c(OC)nn1 [Example I-91, (R)-3-(6-ethynyl-3-methoxypyridazin-4-yl)-10-methyl-9,10,11,12-tetrahydro-8H-[1,4]diazepino[5′,6′:4,5]thieno[3,2-f]quinolin-8-one]	26
C=Cc1ncc(C)c(-c2ccc3c(ccc4sc5c(c43)NC[C@@H](C)NC5=O)n2)n1 [Example I-33, (R)-10-methyl-3-(5-methyl-2-vinylpyrimidin-4-yl)-9,10,11,12-tetrahydro-8H-[1,4]diazepino[5′,6′:4,5]thieno[3,2-f]quinolin-8-one]	120

Further lines, results first:

IC50 [nM]	SMILES
10	C=Cc1cc(-c2ccc3c(ccc4sc5c(c43)NC[C@@H](C)NC5=O)n2)cc(N(C)CCOC)n1 [Example I-237, (R)-3-(2-((2-methoxyethyl)(methyl)amino)-6-vinylpyridin-4-yl)-10-methyl-9,10,11,12-tetrahydro-8H-[1,4]diazepino[5′,6′:4,5]thieno[3,2-f]quinolin-8-one]
20	C=Cc1ncc(COC2(C)COC2)c(-c2ccc3c(ccc4sc5c(c43)NC[C@@H](C)NC5=O)n2)n1 [Example I-29, (R)-10-methyl-3-(5-(((3-methyloxetan-3-yl)oxy)methyl)-2-vinylpyrimidin-4-yl)-9,10,11,12-tetrahydro-8H-[1,4]diazepino[5′,6′:4,5]thieno[3,2-f]quinolin-8-one]
7	C=Cc1nc(C(F)(F)F)nn1-c1ccc2c(ccc3sc4c(c32)NC[C@@H](C)NC4=O)n1 [Example I-226, (R)-10-methyl-3-(3-(trifluoromethyl)-5-vinyl-1H-1,2,4-triazol-1-yl)-9,10,11,12-tetrahydro-8H-[1,4]diazepino[5′,6′:4,5]thieno[3,2-f]quinolin-8-one]
8	C#Cc1cc(-c2ccc3c(ccc4sc5c(c43)NC[C@@H](C)NC5=O)n2)cc(C2=CCN(C)CC2)n1 [Example I-102, (R)-3-(6-ethynyl-1′-methyl-1′,2′,3′,6′-tetrahydro-[2,4′-bipyridin]-4-yl)-10-methyl-9,10,11,12-tetrahydro-8H-[1,4]diazepino[5′,6′:4,5]thieno[3,2-f]quinolin-8-one]
4	C=Cc1nc(C)cn1-c1ccc2c(ccc3sc4c(c32)NC[C@@H](C)NC4=O)n1 [Example I-206, (R)-10-methyl-3-(4-methyl-2-vinyl-1H-imidazol-1-yl)-9,10,11,12-tetrahydro-8H-[1,4]diazepino[5′,6′:4,5]thieno[3,2-f]quinolin-8-one]
11	C=Cc1cc(-c2ccc3c(ccc4sc5c(c43)NC[C@@H](C)NC5=O)n2)cc(CN2CCC(OC)CC2)n1 [Example I-121, (R)-3-(2-((4-methoxypiperidin-1-yl)methyl)-6-vinylpyridin-4-yl)-10-methyl-9,10,11,12-tetrahydro-8H-[1,4]diazepino[5′,6′:4,5]thieno[3,2-f]quinolin-8-one]
4	C=Cc1cc(-c2ccc3c(ccc4sc5c(c43)NC[C@@H](C)NC5=O)n2)c(C)cn1 [Example I-109, (R)-10-methyl-3-(5-methyl-2-vinylpyridin-4-yl)-9,10,11,12-tetrahydro-8H-[1,4]diazepino[5′,6′:4,5]thieno[3,2-f]quinolin-8-one]
1	C=Cc1nccn1-c1ccc2c(ccc3sc4c(c32)NC[C@@H](C)NC4=O)n1 [Example I-164, (R)-10-methyl-3-(2-vinyl-1H-imidazol-1-yl)-9,10,11,12-tetrahydro-8H-[1,4]diazepino[5′,6′:4,5]thieno[3,2-f]quinolin-8-one]
14	C=Cc1cc(-c2ccc3c(ccc4sc5c(c43)NC[C@@H](C)NC5=O)n2)cc(CN2CCOCC2)n1 [Example I-140, (R)-10-methyl-3-(2-(morpholinomethyl)-6-vinylpyridin-4-yl)-9,10,11,12-tetrahydro-8H-[1,4]diazepino[5′,6′:4,5]thieno[3,2-f]quinolin-8-one]
9	C=Cc1cc(-c2ccc3c(ccc4sc5c(c43)NC[C@@H](C)NC5=O)n2)c(C)nn1 [Example I-136, (R)-10-methyl-3-(3-methyl-6-vinylpyridazin-4-yl)-9,10,11,12-tetrahydro-8H-[1,4]diazepino[5′,6′:4,5]thieno[3,2-f]quinolin-8-one]
16	[2H]C([2H])([2H])C(O)c1cnc(C=C)cc1-c1ccc2c(ccc3sc4c(c32)NC[C@@H](C)NC4=O)n1 (stereo partly drawn) [Example I-260, (10R)-3-(5-(1-hydroxyethyl-2,2,2-d3)-2-vinylpyridin-4-yl)-10-methyl-9,10,11,12-tetrahydro-8H-[1,4]diazepino[5′,6′:4,5]thieno[3,2-f]quinolin-8-one]
4	C=Cc1cc(-c2ccc3c(ccc4sc5c(c43)NC[C@@H](C)NC5=O)n2)nc(N2CCN(C)CC2)n1 [Example I-19, (R)-10-methyl-3-(2-(4-methylpiperazin-1-yl)-6-vinylpyrimidin-4-yl)-9,10,11,12-tetrahydro-8H-[1,4]diazepino[5′,6′:4,5]thieno[3,2-f]quinolin-8-one]
10	[2H]C([2H])([2H])C(O)c1cnc(C=C)cc1-c1ccc2c(ccc3sc4c(c32)NC[C@@H](C)NC4=O)n1 (stereo partly drawn) [Example I-243, (10R)-3-(5-(1-hydroxyethyl-2,2,2-d3)-2-vinylpyridin-4-yl)-10-methyl-9,10,11,12-tetrahydro-8H-[1,4]diazepino[5′,6′:4,5]thieno[3,2-f]quinolin-8-one]
3	C#Cc1cc(-c2ccc3c(ccc4sc5c(c43)NC[C@@H](C)NC5=O)n2)cnn1 [Example I-51, (R)-3-(6-ethynylpyridazin-4-yl)-10-methyl-9,10,11,12-tetrahydro-8H-[1,4]diazepino[5′,6′:4,5]thieno[3,2-f]quinolin-8-one]
